According to US5466691A, “Thiophene compound” (Yoshitomi Pharmaceutical Industries, Ltd., priority 1991, dated 1995):
Like-named read-outs stand apart in the source and are kept apart here.

How the values were obtained:
[1] = molecular target: T1, serotonin 1A (5-HT1A) receptor (Rattus norvegicus, UniProt P19327); experiment: Affinity for serotonin 1A receptor ([3H]8-OH-DPAT binding, crude synaptosome fraction of hippocampus); details: tritiated 8-OH-DPAT 0.2 nM, pH 7.4, 37° C., 12 minutes, read-out: binding 5-HT1A, inhibition constant (Ki value)
T1 construct: A crude synaptosome fraction was separated from hippocampus; from tissue; host or cells: hippocampus of Wistar rat, crude synaptosome fraction
T1 sequence (P19327 1-422): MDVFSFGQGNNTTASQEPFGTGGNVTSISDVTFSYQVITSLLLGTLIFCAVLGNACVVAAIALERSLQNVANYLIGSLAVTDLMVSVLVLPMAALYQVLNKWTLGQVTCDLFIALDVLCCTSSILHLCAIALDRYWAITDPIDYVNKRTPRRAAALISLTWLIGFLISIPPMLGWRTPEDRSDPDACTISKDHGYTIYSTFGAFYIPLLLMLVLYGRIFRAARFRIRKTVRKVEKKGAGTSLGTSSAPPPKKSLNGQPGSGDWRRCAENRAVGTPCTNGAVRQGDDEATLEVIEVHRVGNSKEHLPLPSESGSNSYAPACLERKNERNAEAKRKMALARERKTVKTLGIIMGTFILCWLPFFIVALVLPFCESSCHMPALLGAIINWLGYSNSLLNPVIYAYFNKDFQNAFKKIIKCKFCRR
Method: Experiment Example 2: Affinity for serotonin 1A receptor
A specific binding of serotonin 1A (5-HT1A) receptor was tested according to the method described in J. Neurochem. 44, 1685 (1985).
A crude synaptosome fraction was separated from hippocampus of 9-10 weeks old Nistar rat, and suspended in 50 mM Tris-HCl buffer (pH 7.4) containing 1 mM manganese chloride for use in the test. The test compound at several concentrations and tritiated 8-hydroxy-2-dipropylaminotctralin (8-OH-DPAT, final concentration 0.2 nM) were added to the synaptosome suspension, and each mixture was reacted at 37° C. for 12 minutes. After the reaction, the reaction mixture was filtered with suction through a Whatman GF/B glass filter. The filter was washed with 50 mM Tris-HCl buffer (pH 7.7), and the radioactivity of the filter was measured by a liquid scintillation counter. Non-specific binding was determined in the presence of 10^-5 M serotonin (5HT). The concentration necessary for 50% inhibition (IC50) was determined on a graph, and inhibition constant (Ki value) was calculated.

[2] = molecular target: T2, serotonin 2 (5-HT2) receptor (Rattus norvegicus, UniProt P14842); experiment: Affinity for serotonin 2 receptor ([3H]ketanserin binding, crude synaptosome fraction of hippocampus); set-up: species or system Wistar rat; details: tritiated ketanserin 0.2 nM, pH 7.7, 37° C., 20 minutes, read-out: binding 5-HT2, inhibition constant (Ki value)
T2 construct: A crude synaptosome fraction was separated from hippocampus; from tissue; host or cells: hippocampus of Wistar rat, crude synaptosome fraction
T2 sequence (P14842 whole entry): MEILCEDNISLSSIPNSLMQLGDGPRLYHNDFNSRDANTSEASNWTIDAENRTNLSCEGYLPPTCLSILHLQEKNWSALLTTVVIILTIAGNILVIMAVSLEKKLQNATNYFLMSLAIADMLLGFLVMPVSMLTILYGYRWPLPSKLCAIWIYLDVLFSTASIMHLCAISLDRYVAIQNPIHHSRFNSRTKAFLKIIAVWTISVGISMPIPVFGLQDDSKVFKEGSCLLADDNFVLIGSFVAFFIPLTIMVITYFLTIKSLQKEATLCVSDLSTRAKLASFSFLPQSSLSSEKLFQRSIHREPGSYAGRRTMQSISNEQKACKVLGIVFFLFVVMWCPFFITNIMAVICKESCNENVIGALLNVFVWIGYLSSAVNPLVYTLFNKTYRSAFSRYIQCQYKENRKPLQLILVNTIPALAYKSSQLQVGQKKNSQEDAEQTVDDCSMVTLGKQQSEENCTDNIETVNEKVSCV
Method: Experiment Example 3: Affinity for serotonin 2 receptor
A specific binding of serotonin 2 (5-HT2) receptor was tested according to the method described in Mol. Pharmacol. 21, 301 (1981).
A crude synaptosome fraction was separated from hippocampus of 9-10 weeks old Wistar rat, and suspended in 50 mM Tris-HCl buffer (pH 7.7) for use in the test. The test compound at several concentrations and tritiated ketanserin (final concentration 0.2 nM) were added to the synaptosome suspension, and each mixture was incubated at 37° C. for 20 minutes. After the incubation, the mixture was filtered with suction through a Whatman GF/B glass filter. The filter was washed with 50 mM Tris-HCl buffer (plt 7.7), and the radioactivity of the filter was measured by a liquid scintillation counter. Non-specific binding was determined in the presence of 10^-5 M mianserin. The concentration necessary for 50% inhibition (IC50) was determined on a graph, and inhibition constant (Ki value) was calculated.

[3] = system: apomorphine; experiment: Anti-apomorphine action (mouse); assay type: in vivo; details: 1 h before apomorphine, read-out: anti-apomorphine effect ED50
Method: The test compound was orally administered to the mice, and 60 minutes later, 0.5 mg/kg of apomorphine hydrochloride was subcutaneously administered. The movement for 20 minutes from immediately after the administration was measured using Balimex (Columbus, USA).

[4] = molecular target: T3, dopamine 2 (D2) receptor (Rattus norvegicus, UniProt P61169); experiment: Affinity for dopamine 2 receptor ([3H]spiperone binding, synaptosome fraction of corpus striatum); set-up: species or system Wistar rat; details: tritiated spiperone 0.2 nM, 37° C., 20 minutes, read-out: binding D2, inhibition constant (Ki value)
T3 construct: A synaptosome fraction was separated from corpus striatum; from tissue; host or cells: corpus striatum of Wistar rat, synaptosome fraction
T3 sequence (P61169 whole entry): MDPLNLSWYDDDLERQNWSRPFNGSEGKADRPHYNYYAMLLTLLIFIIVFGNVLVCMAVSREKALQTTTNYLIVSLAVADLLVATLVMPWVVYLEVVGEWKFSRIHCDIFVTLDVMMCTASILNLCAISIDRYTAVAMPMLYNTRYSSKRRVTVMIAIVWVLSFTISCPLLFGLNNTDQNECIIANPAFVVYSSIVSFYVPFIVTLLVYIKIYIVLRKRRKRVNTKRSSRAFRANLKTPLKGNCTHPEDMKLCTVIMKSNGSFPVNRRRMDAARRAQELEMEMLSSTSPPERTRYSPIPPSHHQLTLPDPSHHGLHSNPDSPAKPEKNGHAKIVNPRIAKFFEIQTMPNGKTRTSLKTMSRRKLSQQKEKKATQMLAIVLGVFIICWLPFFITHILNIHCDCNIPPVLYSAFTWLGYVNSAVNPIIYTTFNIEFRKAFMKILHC
Method: Experiment Example 1: Affinity for dopamine 2 receptor
A specific binding of dopamine 2 (D2) receptor was tested according to the method described in Eur. J. Pharmacol. 46, 377 (1977).
A synaptosome fraction was separated from corpus striatum of 9-10 weeks old Wistar rat, and suspended in 50 mM Tris-HCl buffer (pH 7.1) containing 120 mM sodium chloride, 5 mM potassium chloride, 2 mM calcium chloride, 1 mM magnesium chloride, 10 μM pargyline and 0.1% ascorbic acid for use in the test.
The test compound at several concentrations and tritiated spiperone (final concentration 0.2 nM) were added to the synaptosome suspension, and each mixture was reacted at 37° C. for 20 minutes. After the reaction, the reaction mixture was filtered with suction through a Whatman GF/B glass filter. The filter was washed with 50 mM Tris-HCl buffer (pH 7.7), and the radioactivity of the filter was measured by a liquid scintillation counter. Non-specific binding was determined in the presence of 10^-4 M(±)-sulpiride. The concentration necessary for 50% inhibition (IC50) was determined on a graph, and inhibition constant (Ki value) was calculated.

[5] = system: ddY mice; experiment: Acute toxicity; assay type: in vivo; details: 5 days

Compound | Ki [1] [nM] | Ki [2] [nM] | ED50 ([3]; male dd mice, oral, 60 minutes before 0.5 mg/kg s.c. apomorphine hydrochloride, movement for 20 minutes) [mg/kg] | Ki [4] [nM] | ED50 ([3]; po) [mg/kg] | death ([5]; 100 mg/kg intraperitoneally, 5 male ddY mice) | death ([5]; 300 mg/kg orally)
CC(=O)NCc1sc(CCN2CCC(c3noc4cc(F)ccc34)CC2)cc1C [Example 151, 3-(1-(2-(5-acetylaminomethyl-4-methyl-2-thienyl)ethyl)-piperadin-4-yl)-6-fluoro-1,2-benzisoxazole] | 15 | 0.099 | 0.76 | 3.8 | – | – | –
CC(=O)Nc1ccc(SCCCN2CCC(c3noc4cc(F)ccc34)CC2)s1 [Example 40, 3-(1-(3-((5-acetylamino-2-thienyl)thio)propyl)piperidin-4-yl) -6-fluoro-1,2-benzisoxazole] | 0.35 | 0.45 | – | 0.71 | 1 | – | –
CC(=O)NCc1ccc(SCCCN2CCC(c3noc4cc(F)ccc34)CC2)s1 [Example 93, 3-(1-(3-((5-acetylaminomethyl-2-thienyl)thio)propyl)-piperidin-4-yl)-6-fluoro-1,2-benzisoxazole] | 26 | 0.79 | – | 0.8 | 2.9 | – | –
CC(=O)NCc1ccc(CCCCN2CCC(c3noc4cc(F)ccc34)CC2)s1 [Example 108, 3-(1-(4-(5-acetylaminomethyl-2-thienyl)butyl)piperidin-4-yl) -6-fluoro-1,2-benzisoxazole] | 56 | 2.1 | – | 2 | 0.41 | – | –
CC(=O)c1ccc(SCCCN2CCN(c3cccc(C)c3C)CC2)s1 [Example 4, 1(3-((5-acetyl-2-thienyl)thio)propyl)-4-(2,3-dimethylphenyl)piperazine] | – | – | – | – | – | No death was observed | no death was observed
CC(=O)NCc1ccc(CCN2CCC(c3noc4cc(F)ccc34)CC2)s1 [Example 119, 3-(1-(2-(5-acetylaminomethyl-2-thicnyl)ethyl)piperidin-4-yl)-6-fluoro-1,2-benzisoxazole] | 14 | 0.65 | – | 3.8 | 0.16 | – | –
NCc1ccc(CCCCN2CCC(c3noc4cc(F)ccc34)CC2)s1 [Example 165, 3-(1-(4-(5-aminomethyl-2-thienyl)butyl)piperidin-4-yl)-6-fluoro-1,2-benzisoxazole] | 1.7 | 1.3 | – | 0.69 | 0.24 | – | –
CC(=O)NCCc1ccc(CCN2CCC(c3noc4cc(F)ccc34)CC2)s1 [Example 158, 3-(1-(2-(5-(2-acetylaminoethyl)-2-thienyl)ethyl)piperidin-4-yl) -6-fluoro-1,2-benzisoxazole] | 16 | 0.13 | – | 0.94 | 0.14 | – | –
CC(=O)NCc1ccc(C(=O)CCCN2CCC(c3noc4cc(F)ccc34)CC2)s1 [Example 95, 3-(1-(4-(5-acetylaminomethyl-2-thienyl)-4-oxobutyl)piperidin-4-yl)-6-fluoro-1,2-benzisoxazole] | 140 | 0.059 | – | 2.5 | 2.6 | – | –
CC(=O)c1ccc(SCCCN2CCN(c3nsc4ccccc34)CC2)s1 [Example 21, 3-(4-(3-((5-acctyl-2-thicnyl)thio)propyl)-l-piperadinyl)1,2-benzisothiazole] | 0.12 | 0.59 | – | 1.3 | 35 | – | –
CC(=O)c1ccc(SCCCN2CCC(c3noc4cc(F)ccc34)CC2)s1 [Example 36, 3-(1-(3-((5-acctyl-2-thienyl)thio)propyl)piperidin-4-yl)-6-fluoro-1,2-benzisoxazole] | 0.75 | 1.3 | – | 0.61 | 3.4 | – | –
CC(=O)NCCc1sc(CCN2CCC(c3noc4cc(F)ccc34)CC2)cc1Br [Example 159, 3-(1-(2-(5-(2-acetylaminoethyl)-4-bromo-2-thienyl)ethyl)-piperidin-4-yl) -6-fluoro-1,2-benzisoxazole] | 12 | 0.047 | – | 0.5 | 0.53 | – | –
CC(=O)NCc1cc(CCN2CCC(c3noc4cc(F)ccc34)CC2)c(C)s1 [Example 155, 3-(1-(2-(5-acetylaminomethyl-2-methyl-3-thienyl)ethyl)-piperidin-4-yl)-6-fluoro-1,2-benzisoxazole] | > 100 | 0.37 | – | 1.4 | 1.2 | – | –
